According to patent US20140221340A1 (KYOWA HAKKO KIRIN CO., LTD., priority 2011, published 2014):

Molecular target: T1, human CCR10 (Homo sapiens, UniProt P46092)
T1 construct: expressed in transfected cells; host or cells: KJMGER8 cell (cell line derived from Namalwa cell); expression induced with 10 nmol/L β-estradiol
T1 sequence (P46092 1-362): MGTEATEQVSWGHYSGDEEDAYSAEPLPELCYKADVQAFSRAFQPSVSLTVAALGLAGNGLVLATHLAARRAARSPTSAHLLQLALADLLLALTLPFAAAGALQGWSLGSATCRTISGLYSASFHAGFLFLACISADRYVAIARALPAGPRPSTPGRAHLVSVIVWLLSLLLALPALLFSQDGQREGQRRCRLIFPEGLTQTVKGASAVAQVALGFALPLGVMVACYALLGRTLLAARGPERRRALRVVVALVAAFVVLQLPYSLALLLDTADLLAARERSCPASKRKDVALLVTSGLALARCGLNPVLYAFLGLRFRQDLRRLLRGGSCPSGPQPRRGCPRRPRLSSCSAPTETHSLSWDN
Test: Calcium assay of human CCR10 (inhibition of CTACK-induced increase in intracellular calcium ion concentration in hCCR10G16 cells)
Assay type: cell-based
Conditions: test compound 100 nmol/L, human recombinant CTACK, hCCR10G16 cells (KJMGER8/Namalwa-derived, Gα16 co-expressed), FLIPR or FDSS; for inhibition at 0.1 µM: read-out: Inhibitory rate (%) for an increase in calcium ion concentration
Procedure: A CCR10-inducible expression plasmid was produced according to a known method (“Analytical Biochemistry”, 2006, vol. 400, page 163). A DNA encoding human CCR10 was obtained by PCR. Using human chromosomal DNA (100 ng; manufactured by Clontech Laboratories, Inc.) as a template, a synthetic DNA having the sequences shown by SEQ ID NOs: 1 and 2 as a human CCR10 cDNA specific primer, and Pyrobest DNA Polymerase (manufactured by TAKARA SHUZO CO. LTD.) as an enzyme, a DNA encoding human CCR10 was obtained by PCR. As a buffer solution for PCR, the buffer solution attached to the enzyme was diluted 10-fold with deionized water and used. Using Thermal Cycler DNA Engine (manufactured by MJ Research), PCR was performed by 35 cycles of reactions composed of an incubation at 90° C. for 2 min, at 94° C. for 30 seconds, at an anneal temperature of 58° C. for 30 seconds, and at 72° C. for 1 min.
The amplified PCR fragment was cleaved with HindIII and NotI, then a human CCR10 DNA fragment was recovered by an agarose gel electrophoresis method. The fragment was incorporated in between the corresponding restriction enzyme sites (HindIII-NotI) of an inducible expression vector, whereby a human CCR10-inducible expression plasmid were prepared.
Using a primer specific to the sequence of the plasmid (synthetic DNA having the sequences shown by SEQ ID NOs: 3 and 4), the sequence of human CCR10 DNA region was determined. For the determination of the base sequence, DNA sequencer 377 (manufactured by PerkinElmer) and a reaction kit (ABI Prism (registered trade mark) BigDye (registered trade mark) Terminator Cycle Sequencing Ready Reaction kit: manufactured by Applied Biosystems) were used. The sequence of human CCR10 DNA matched with the sequence (NM_016602) registered in GenBank.
Cells for the detection of the signal from human CCR10 by a calcium assay were prepared. Human CCR10-inducible expressing cells whose host cell is KJMGER8 cell (cell line derived from Namalwa cell) were prepared according to a known method (“Analy Biochem”, 2006, vol. 400, page 163). Human CCR10-inducible expression plasmid produced above and Gα16 expression plasmid were co-transfected into KJMGER8 cell by an electroporation method (“Cytotechnology”, 1990, vol. 3, page 133), whereby a signal from human CCR10 could be detected by a calcium assay (hereinafter to be referred to as hCCR10G16 cell). Gα16 expression plasmid was produced by incorporating human Gα16 DNA into expression vector pAMoh (WO03/087366). Induced expression of human CCR10 was performed by cultivating hCCR10G16 cells in the presence of 10 nmol/L β-estradiol (manufactured by Sigma Ltd.) for 24 hr.
Cells expressing human CCR10 induced by the above-mentioned method were suspended in RPMI1640 medium and adjusted to cell density of 1.25×10^6 cells/mL. This mixture was dispensed to a 384 well clear bottom plate (manufactured by Corning Incorporated) at 20 μL/well, and these were incubated at 37° C. for several dozen minutes. A loading buffer prepared according to the protocol attached to FLIPR Calcium 3 assay kit (manufactured by Molecular Device) was dispensed to this plate at 20 μL/well, and the plate was incubated at 37° C. for 60 min. A 33 μmol/L DMSO solution of the test compound was diluted 37-fold with RPMI1640 medium and the resulting solution was added at 5 μL/well, and the mixture was incubated at 37° C. for 30 min. 300 nmol/L human recombinant CTACK (manufactured by R and D Systems) diluted with RPMI1640 medium containing 1 w/v % bovine serum albumin was added at 5 μL/well. Change of the intracellular calcium ion concentration for about 5 min after the addition was measured by FLIPR (manufactured by Molecular Device) or FDSS (manufactured by Hamamatsu Photonics K.K.). The difference between the maximum fluorescence intensity and the minimum fluorescence intensity for 5 min was calculated, and taken as the measurement value (maximum fluorescence intensity−minimum fluorescence intensity). […]

| SMILES | inhibition at 0.1 µM | Inhibitory rate (%) for an increase in calcium ion concentration |
| --- | --- | --- |
| CCC(=O)NS(=O)(=O)c1cnn2c(Nc3cc(C)c(F)cc3Cl)c(C(=O)N3CCC(c4ccc(F)cc4)CC3)cnc12 [a-40, N-{7-(2-Chloro-4-fluoro-5-methylphenylamino)-6-[4-(4-fluorophenyl)piperidine-1-carbonyl]pyrazolo[1,5-a]pyrimidin-3-ylsulfonyl}propionamide] | > 100% | – |
| Cc1cc(Nc2c(C(=O)N3CCC(c4ccc(F)cc4)CC3)cnc3c(S(=O)(=O)NC(=O)C4CC4)cnn23)c(Cl)cc1F [a-41, N-{7-(2-Chloro-4-fluoro-5-methylphenylamino)-6-[4-(4-fluorophenyl)piperidine-1-carbonyl]pyrazolo[1,5-a]pyrimidin-3-ylsulfonyl}cyclopropanecarboxamide] | > 100% | – |
| CCNC(=O)NS(=O)(=O)c1cnn2c(Nc3cc(C)c(F)cc3Cl)c(C(=O)N3CCC(c4ccc(F)cc4)CC3)cnc12 [a-42, 7-(2-Chloro-4-fluoro-5-methylphenylamino)-N-(ethylcarbamoyl)-6-[4-(4-fluorophenyl)piperidine-1-carbonyl]pyrazolo[1,5-a]pyrimidine-3-sulfonamide] | > 100% | – |
| CCNC(=O)NS(=O)(=O)c1cnn2c(Nc3ccc(F)cc3C)c(C(=O)N3CCC4(CC3)OCc3ccccc34)cnc12 [a-43, 7-(4-Fluoro-2-methylphenylamino)-N-(ethylcarbamoyl)-6-[3H-spiro(isobenzofuran-1,4′-piperidine)-1′-carbonyl]pyrazolo[1,5-a]pyrimidine-3-sulfonamide] | 92% | – |
| Cc1cc(Cl)ccc1Nc1c(C(=O)N2CCC3(CC2)OCc2ccccc23)cnc2c(S(=O)(=O)NC(=O)C3CC3)cnn12 [a-46] | – | >100% |

Continued, in another order:

| inhibition at 0.1 µM | SMILES | Inhibitory rate (%) for an increase in calcium ion concentration |
| --- | --- | --- |
| 95.2% | CCNC(=O)NS(=O)(=O)c1cnn2c(Nc3cc(C)ccc3Cl)c(C(=O)N3CCC4(CC3)OCc3ccccc34)cnc12 [a-44, 7-(2-Chloro-5-methylphenylamino)-N-(ethylcarbamoyl)-6-[3H-spiro(isobenzofuran-1,4′-piperidine)-1′-carbonyl]pyrazolo[1,5-a]pyrimidine-3-sulfonamide] | – |
| 80.3% | CCNS(=O)(=O)c1cnn2c(Nc3cc(C)ccc3Cl)c(C(=O)N3CCC4(CC3)OCc3ccccc34)cnc12 [a-45, N-Ethyl-7-(2-chloro-5-methylphenylamino)-6-[3H-spiro(isobenzofuran-1,4′-piperidine)-1′-carbonyl]pyrazolo[1,5-a]pyrimidine-3-sulfonamide] | – |
| > 100% | CCNC(=O)NS(=O)(=O)c1cnn2c(Nc3ccc(Cl)cc3C)c(C(=O)N3CCC4(CC3)OCc3ccccc34)cnc12 [a-47, 7-(4-Chloro-2-methylphenylamino)-N-(ethylcarbamoyl)-6-[3H-spiro(isobenzofuran-1,4′-piperidine)-1′-carbonyl]pyrazolo[1,5-a]pyrimidine-3-sulfonamide] | – |
| > 100% | CCC(=O)NS(=O)(=O)c1cnn2c(Nc3ccc(C)cc3F)c(C(=O)N3CCC4(CC3)OCc3ccccc34)cnc12 [a-48, N-{7-(2-Fluoro-4-methylphenylamino)-6-[3H-spiro(isobenzofuran-1,4′-piperidine)-1′-carbonyl]pyrazolo[1,5-a]pyrimidin-3-ylsulfonyl}propionamide] | – |
| > 100% | CCNC(=O)NS(=O)(=O)c1cnn2c(Nc3ccc(C)cc3F)c(C(=O)N3CCC4(CC3)OCc3ccccc34)cnc12 [a-49, 7-(2-Fluoro-4-methylphenylamino)-N-(ethylcarbamoyl)-6-[3H-spiro(isobenzofuran-1,4′-piperidine)-1′-carbonyl]pyrazolo[1,5-a]pyrimidine-3-sulfonamide] | – |
| > 100% | CCC(=O)NS(=O)(=O)c1cnn2c(Nc3ccc(F)cc3Cl)c(C(=O)N3CCC4(CC3)OCc3ccccc34)cnc12 [a-50, N-{7-(2-Chloro-4-fluorophenylamino)-6-[3H-spiro(isobenzofuran-1,4′-piperidine)-1′-carbonyl]pyrazolo[1,5-a]pyrimidin-3-ylsulfonyl}propionamide] | – |
